Results: PubChem BioAssay (NCI)
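Grown in 96-well plates, cells were treated for 48 hours with each compound at five concentrations. Insufficient inhibition: endpoint recorded as highest concentration tested. TGI: concentration producing complete growth inhibition.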

Tests used:
Test in all cases: DTP human tumour cell line panel, 48 h
[1] = tested on: 786-0 renal
[2] = tested on: A549 NSCLC
[3] = tested on: ACHN renal
[4] = tested on: CAKI-1 renal
[5] = tested on: CCRF-CEM leukemia
[6] = tested on: COLO 205 colon
[7] = tested on: DLD-1 colon
[8] = tested on: DMS 114 small cell lung
[9] = tested on: DMS 273 small cell lung
[10] = tested on: EKVX NSCLC
[11] = tested on: HCC-2998 colon
[12] = tested on: HCT-116 colon
[13] = tested on: HCT-15 colon
[14] = tested on: HL-60(TB) leukemia
[15] = tested on: HOP-62 NSCLC
[16] = tested on: HOP-92 NSCLC
[17] = tested on: HT29 colon
[18] = tested on: IGROV1 ovarian
[19] = tested on: K-562 leukemia
[20] = tested on: KM12 colon
[21] = tested on: KM20L2 colon
[22] = tested on: LOX IMVI melanoma
[23] = tested on: LXFL 529 NSCLC
[24] = tested on: M19-MEL melanoma
[25] = tested on: MALME-3M melanoma
[26] = tested on: MOLT-4 leukemia
[27] = tested on: NCI-H226 lung
[28] = tested on: NCI-H23 lung
[29] = tested on: NCI-H460 lung
[30] = tested on: NCI-H522 lung
[31] = tested on: OVCAR-3 ovarian
[32] = tested on: OVCAR-5 ovarian
[33] = tested on: OVCAR-8 ovarian
[34] = tested on: RPMI-8226 leukemia
[35] = tested on: RXF 393 renal
[36] = tested on: RXF-631 renal
[37] = tested on: SF-268 CNS
[38] = tested on: SF-295 CNS
[39] = tested on: SF-539 CNS
[40] = tested on: SK-MEL-2 melanoma
[41] = tested on: SK-MEL-28 melanoma
[42] = tested on: SK-MEL-5 melanoma
[43] = tested on: SK-OV-3 ovarian
[44] = tested on: SN12C renal
[45] = tested on: SNB-19 CNS
[46] = tested on: SR leukemia
[47] = tested on: SW-620 colon
[48] = tested on: TK-10 renal
[49] = tested on: U251 CNS
[50] = tested on: UACC-257 melanoma
[51] = tested on: UACC-62 melanoma
[52] = tested on: XF 498 CNS
[53] = tested on: A498 renal
[54] = tested on: HOP-18 NSCLC
[55] = tested on: M14 melanoma
[56] = tested on: OVCAR-4 ovarian
[57] = tested on: SNB-75 CNS
[58] = tested on: UO-31 renal
[59] = tested on: SNB-78 CNS

CCC12CCCN(Cc3ccccc3)C1c1c(n(C)c3ccccc13)C(C(=O)OC)C2 (configuration not stated)
TGI [1]: > 239 µM
TGI [2]: > 239 µM
TGI [3]: > 239 µM
TGI [4]: > 239 µM
TGI [5]: > 239 µM
TGI [6]: > 239 µM
TGI [7]: > 239 µM
TGI [8]: > 239 µM
TGI [9]: > 239 µM
TGI [10]: > 239 µM
TGI [11]: > 239 µM
TGI [12]: > 239 µM
TGI [13]: > 239 µM
TGI [14]: > 239 µM
TGI [15]: > 239 µM
TGI [16]: > 239 µM
TGI [17]: > 239 µM
TGI [18]: > 239 µM
TGI [19]: > 239 µM
TGI [20]: > 239 µM
TGI [21]: > 239 µM
TGI [22]: > 239 µM
TGI [23]: > 239 µM
TGI [24]: > 239 µM
TGI [25]: > 239 µM
TGI [26]: > 239 µM
TGI [27]: > 239 µM
TGI [28]: > 239 µM
TGI [29]: > 239 µM
TGI [30]: 127 µM
TGI [31]: 170 µM
TGI [32]: > 239 µM
TGI [33]: > 239 µM
TGI [34]: > 239 µM
TGI [35]: > 239 µM
TGI [36]: > 239 µM
TGI [37]: > 239 µM
TGI [38]: 231 µM
TGI [39]: > 239 µM
TGI [40]: > 239 µM
TGI [41]: > 239 µM
TGI [42]: 97.1 µM
TGI [43]: > 239 µM
TGI [44]: > 239 µM
TGI [45]: > 239 µM
TGI [46]: > 239 µM
TGI [47]: > 239 µM
TGI [48]: > 239 µM
TGI [49]: > 239 µM
TGI [50]: 191 µM
TGI [51]: > 239 µM
TGI [52]: 118 µM

[N-]=[N+]=CC(=O)c1ccccc1C#CCCc1ccccc1
TGI [53]: > 100 µM
TGI [2]: > 100 µM
TGI [3]: 68.8 µM
TGI [5]: 62.1 µM
TGI [6]: 71.1 µM
TGI [7]: > 100 µM
TGI [8]: 23.6 µM
TGI [9]: 73.7 µM
TGI [10]: 75.5 µM
TGI [11]: > 100 µM
TGI [12]: 48.9 µM
TGI [13]: > 100 µM
TGI [14]: 32.9 µM
TGI [54]: > 100 µM
TGI [15]: > 100 µM
TGI [16]: 63.6 µM
TGI [17]: 36.7 µM
TGI [18]: > 100 µM
TGI [19]: > 100 µM
TGI [20]: > 100 µM
TGI [21]: 62.7 µM
TGI [22]: > 100 µM
TGI [55]: > 100 µM
TGI [25]: 79.1 µM
TGI [26]: 40.9 µM
TGI [27]: 98.3 µM
TGI [28]: 89.2 µM
TGI [29]: > 100 µM
TGI [30]: 30.9 µM
TGI [31]: 61.5 µM
TGI [56]: > 100 µM
TGI [32]: > 100 µM
TGI [33]: > 100 µM
TGI [34]: 50.2 µM
TGI [35]: > 100 µM
TGI [38]: > 100 µM
TGI [39]: > 100 µM
TGI [40]: 79.7 µM
TGI [41]: > 100 µM
TGI [42]: 32.2 µM
TGI [43]: 66.7 µM
TGI [44]: > 100 µM
TGI [45]: > 100 µM
TGI [57]: 61.4 µM
TGI [46]: > 100 µM
TGI [47]: > 100 µM
TGI [48]: > 100 µM
TGI [49]: 88.5 µM
TGI [50]: 94.7 µM
TGI [51]: 69.8 µM
TGI [58]: > 100 µM
TGI [52]: 41.3 µM

OCC1C(/C=C/c2ccoc2)ON2CCCC12 (configuration not stated)
TGI [1]: > 100 µM
TGI [2]: > 100 µM
TGI [3]: > 100 µM
TGI [4]: > 100 µM
TGI [6]: > 100 µM
TGI [7]: > 100 µM
TGI [9]: > 100 µM
TGI [10]: > 100 µM
TGI [11]: > 100 µM
TGI [14]: > 100 µM
TGI [54]: 86 µM
TGI [15]: > 100 µM
TGI [17]: > 100 µM
TGI [20]: > 100 µM
TGI [21]: > 100 µM
TGI [22]: > 100 µM
TGI [23]: > 100 µM
TGI [55]: > 100 µM
TGI [24]: > 100 µM
TGI [25]: > 100 µM
TGI [27]: > 100 µM
TGI [28]: > 100 µM
TGI [29]: > 100 µM
TGI [30]: > 100 µM
TGI [56]: > 100 µM
TGI [32]: > 100 µM
TGI [33]: > 100 µM
TGI [35]: > 100 µM
TGI [37]: > 100 µM
TGI [38]: > 100 µM
TGI [39]: > 100 µM
TGI [40]: > 100 µM
TGI [41]: > 100 µM
TGI [44]: > 100 µM
TGI [45]: > 100 µM
TGI [57]: > 100 µM
TGI [59]: > 100 µM
TGI [47]: > 100 µM
TGI [48]: > 100 µM
TGI [49]: > 100 µM
TGI [50]: > 100 µM
TGI [58]: > 100 µM
TGI [52]: > 100 µM

C1=CC=C2NCCCCCCCNC3=CC=CC=CC3=NCCCCCCCN=C2C=C1
TGI [1]: > 100 µM
TGI [2]: > 100 µM
TGI [3]: > 100 µM
TGI [4]: > 100 µM
TGI [5]: > 100 µM
TGI [6]: > 100 µM
TGI [7]: > 100 µM
TGI [9]: 39.9 µM
TGI [10]: > 100 µM
TGI [11]: > 100 µM
TGI [12]: > 100 µM
TGI [13]: > 100 µM
TGI [14]: > 100 µM
TGI [16]: 98.6 µM
TGI [17]: > 100 µM
TGI [19]: > 100 µM
TGI [20]: > 100 µM
TGI [21]: > 100 µM
TGI [22]: > 100 µM
TGI [23]: > 100 µM
TGI [24]: > 100 µM
TGI [25]: > 100 µM
TGI [26]: > 100 µM
TGI [27]: > 100 µM
TGI [28]: > 100 µM
TGI [29]: > 100 µM
TGI [30]: > 100 µM
TGI [56]: > 100 µM
TGI [32]: > 100 µM
TGI [33]: > 100 µM
TGI [34]: > 100 µM
TGI [35]: 39.5 µM
TGI [36]: 25.7 µM
TGI [37]: > 100 µM
TGI [38]: > 100 µM
TGI [39]: > 100 µM
TGI [40]: > 100 µM
TGI [44]: > 100 µM
TGI [45]: > 100 µM
TGI [57]: 67.9 µM
TGI [46]: > 100 µM
TGI [47]: > 100 µM
TGI [50]: > 100 µM
TGI [58]: > 100 µM
TGI [52]: > 100 µM
